# Read-outs that look alike come from different tables or passages of the source.
# How the values were obtained:
# [1] = test system: osteoclast differentiation; assay: Inhibitory effect on osteoclast differentiation, co-culture of bone marrow cells and osteoblast, TRAP staining; assay type: cell-based, mouse; conditions: Mus musculus, Osteoclast, 168 h, read-out: inhibitory effect on osteoclast differentiation(%)
# Outline: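 Mouse ddY bone marrow cells (25,000/cm^2) were co-cultured with neonatal ICR calvarial osteoblasts (10,000/cm^2) and compound for 7 days, with 10^−7 M dexamethasone and 10^−8 M vitamin D3, refreshed every 2–3 days. TRAP-positive cells with ≥3 nuclei were counted and expressed as % inhibition versus negative controls.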
# MC3T3 = assay: Cytotoxicity test (MTT), MC3T3; assay type: cell-based; conditions: 10^−6M, 72 hrs, in comparison with the control group
# Experimental: (§1) The cytotoxic effect of the benzamidine derivative of the present invention was evaluated by carrying out the experiment described below.
# (§2) The test substance was diluted in an appropriate solvent at a 10^−2 M concentration. This substance was diluted in an appropriate culture medium for the cells used in the cytotoxicity test to a concentration of […], and loaded into a 96-well plate in 100 μl per well. The cell lines to be used in the cytotoxicity test were plated on a 96-well plate in a dose of 1.0×10^4 cells/1OO μl per well and cultured for 72 hrs. 25 μl of MTT [3-(4,5-dimethyl-2-thiazolyl)-2,5-diphenyl-2H-tetrazolium bromide] dissolved in PBS (2 mg/mL) were added before 4 hrs of the end of culture. After completion of the reaction, the plates were centrifuged, the medium was discarded and 100 μl of DMSO was added to dissolve formazan. Finally, the absorbance of the developed plates was measured at 540 nm. The survival rates of the cells were expressed as % concentration values in comparison with the control group.
# calvaria = assay: Cytotoxicity test (MTT), calvaria; assay type: cell-based; conditions: 10^−6M, 72 hrs, in comparison with the control group
# Experimental: as §1, §2
# HOS = assay: Cytotoxicity test (MTT), HOS; assay type: cell-based; conditions: 10^−6M, 72 hrs, in comparison with the control group
# Experimental: as §1, §2
# [2] = test system: ovariectomized white mouse; assay: Therapeutic effect in mouse model of osteoporosis induced by ovariectomy, trabecular bone volume of the femur by histomorphometry; assay type: in vivo; conditions: read-out: Changes in trabecular bone volume (% relative to vehicle control)
# Experimental: The therapeutic effect of each benzamidine derivate of the present invention was evaluated on the ovariectomized white mouse. The substances of Examples 18, 19 and 72 were administered from 4 weeks after operation for 4 weeks and the substances of Examples 27, 33, 36, 47, 53 and 59 were administered from 3 days after operation for 29 days. Thereafter, the changes in the trabecular bone volume (TBV) of the femur were observed via histomorphometry.
# Female ddY mice (6-week-old, SLC, Japan) were used after acclimatization for 7 days. Animals to be test were allocated 5 per a plastic cage for mice, and raised in a temperature (20 to 25[…]) and humidity (30 to 35%) controlled room. Feed and water were supplied free to access.
# Salts of the benzamidine derivative of the present invention (methanesulfonic acid or HCl) were dissolved or suspended in sterilized, distilled water or 5% DMSO, and administered at a dose of 10 ml per body weight (kg) in the form of a solution. The substances of Examples 18, 19 and 72 were administered from 4 weeks after operation for 4 weeks, and the substances of Examples 27, 33, 36, 47, 53 and 59 were administered from 3 days after operation for 29 days each at 50 mg/kg/day.
# After all animals anesthetize using ketamine hydrochloride and xylazine hydrochloride, bilateral ovaries were removed in order to induce estrogen-deficient osteoporosis. After ovariectomy, the […] were closed by routine methods.
# The left femur was separated at a final sacrifice day, and fixed in 10% neutral formalin, then decalcified in a decalcifying solution (solution composed of 2.44% formic acid, and 0.5 N sodium hydroxide). The decalcifying solution was exchanges once a day for 5 days. After completion of the decalcification, the femur was embedded in paraffin, sectioned (3 to 4 μM), and stained with a hematoxylin-eosin stain. Observation was made using optical micrography.
# The trabecular bone volume was calculated using automated image analysis (analysis Image Processing; SIS, Germany) in the femur using a femur histological specimen prepared in the above manner. The trabecular bone volume was calculated as percentage (%) levels.
# All the numeral values were determined and compared to that of the vehicle control used in each experiment, using the calculation by the following Equation 1. Change(%)=[(trabecular bone volume of a−trabecular bone volume of b)/trabecular bone volume of b]×100 [Equation 1]
# a: Experiment group, b: Vehicle group
# [3] = 1 μm, 7 days co-culture, TRAP-positive osteoclasts with 3 or more nuclei, relative to negative controls
# [4] = 672 h, ovariectomized ddY mice, femur, 50 mg/kg/day, administered from 4 weeks after operation for 4 weeks
# [5] = 696 h, ovariectomized ddY mice, femur, 50 mg/kg/day, administered from 3 days after operation for 29 days
SMILES,inhibition at 1 µM [1],survival rates of the cells (MC3T3),survival rates of the cells (calvaria),survival rates of the cells (HOS),change in vivo at 50 mg/kg/day ([2]; 672 h),"inhibition at 1 µM [1, 3]","change in vivo at 50 mg/kg/day [2, 4]","change in vivo at 50 mg/kg/day [2, 5]",change in vivo at 50 mg/kg/day ([2]; 696 h)
"Cc1nc(-c2ccc(OCCCCCOc3ccc(C(=N)NO)cc3)cc2)c(CCN2CCOCC2)s1 [Example 18, N-hydroxy-4-(5-{4-[2-methyl-5-(2-morpholin-4-yl-ethyl)-thiazol-4-yl]-phenoxy}-pentyloxy)-benzamidine]",100%,94.4%,97.3%,99.7%,139%,,,,
"Cc1nc(-c2ccc(OCCCCCOc3ccc(C(=N)NO)cc3)cc2)c(CCN2CCN(C)CC2)s1 [Example 19, N-hydroxy-4-[5-(4-{2-methyl-5-[2-(4-methyl-piperazin-1-yl)-ethyl]-thiazol-4-yl}-phenoxy)-pentyloxy]-benzamidine]",,,,,,100%,2.99%,,
"CC(C)c1nc(-c2ccc(OCCCCCOc3ccc(C(=N)NO)cc3)cc2)c(CCN2CCOCC2)s1 [Example 27, N-hydroxy-4-(5-{4-[2-isopropyl-5-(2-morpholin-4-yl-ethyl)-thiazol-4-yl]-phenoxy}-pentyloxy)-benzamidine]",,,,,,81%,,23.6%,
"N=C(NO)c1ccc(OCCCCCOc2ccc(-c3nc(C4CCCCC4)sc3CCN3CCOCC3)cc2)cc1 [Example 33, N-hydroxy-4-(5-{4-[2-cyclohexyl-5-(2-morpholin-4-yl-ethyl)-thiazol-4-yl]-phenoxy}-pentyloxy)-benzamidine]",92%,,,,,,,,26.3%
"N=C(NO)c1ccc(OCCCCCOc2ccc(-c3nc(C4CCCCC4)sc3CCN3CCSCC3)cc2)cc1 [Example 36, N-hydroxy-4-(5-{4-[2-cyclohexyl-5-(2-thiomorpholin-4-yl-ethyl)-thiazol-4-yl]-phenoxy}-pentyloxy)-benzamidine]",100%,97.6%,89.1%,81.4%,,,,,26.6%
"CNc1nc(-c2ccc(OCCCCCOc3ccc(C(=N)NO)cc3)cc2)c(CCN2CCOCC2)s1 [Example 47, N-hydroxy-4-(5-{4-[2-methylamino-5-(2-morpholin-4-yl-ethyl)-thiazol-4-yl]-phenoxy}-pentyloxy)-benzamidine]",,,,,,89.6%,,5.77%,
"CNc1nc(-c2ccc(OCCCCCOc3ccc(C(=N)NO)cc3)cc2)c(CCNCCCn2ccnc2)s1 [Example 51, N-hydroxy-4-[5-(4-{5-[2-(3-imidazol-1-yl-propylamino)-ethyl]-2-methylamino-thiazol-4-yl}-phenoxy)-pentyloxy]-benzamidine]",,93.8%,91.7%,99.6%,,32%,,,
"CN(C)c1nc(-c2ccc(OCCCCCOc3ccc(C(=N)NO)cc3)cc2)c(CCN2CCOCC2)s1 [Example 53, N-hydroxy-4-(5-{4-[2-dimethylamino-5-(2-morpholin-4-yl-ethyl)-thiazol-4-yl]-phenoxy}-pentyloxy)-benzamidine]",,,,,,99.3%,,25.6%,
"N=C(NO)c1ccc(OCCCCCOc2ccc(-c3nc(N(CCN4CCOCC4)Cc4ccccc4)sc3CCN3CCOCC3)cc2)cc1 [Example 56, N-hydroxy-4-(5-{4-[2-[benzyl-(2-morpholin-4-yl-ethyl)-amino]-5-(2-morpholin-4-yl-ethyl)-thiazol-4-yl]-phenoxy}-pentyloxy)-benzamidine]",,86.0%,84.0%,98.8%,,100%,,,
"CCN(CC)c1nc(-c2ccc(OCCCCCOc3ccc(C(=N)NO)cc3)cc2)c(CCN2CCOCC2)s1 [Example 57, N-hydroxy-4-(5-{4-[2-diethylamino-5-(2-morpholin-4-yl-ethyl)-thiazol-4-yl]-phenoxy}-pentyloxy)-benzamidine]",,86.8%,87.0%,90.7%,,100%,,,
"COCCN(CCOC)c1nc(-c2ccc(OCCCCCOc3ccc(C(=N)NO)cc3)cc2)c(CCN2CCOCC2)s1 [Example 58, N-hydroxy-4-(5-{4-[2-[bis-(2-methoxy-ethyl)-amino]-5-(2-morpholin-4-yl-ethyl)-thiazol-4-yl]-phenoxy}-pentyloxy)-benzamidine]",,79.2%,76.8%,85.4%,,100%,,,
"N=C(NO)c1ccc(OCCCCCOc2ccc(-c3nc(N4CCOCC4)sc3CCN3CCOCC3)cc2)cc1 [Example 59, N-hydroxy-4-(5-{4-[2-morpholin-4-yl-5-(2-morpholin-4-yl-ethyl)-thiazol-4-yl]-phenoxy}-pentyloxy)-benzamidine]",,,,,,58%,,5.66%,
"N=C(NO)c1ccc(OCCCCCOc2ccc(-c3nc(N4CCOCC4)sc3CCNCCN3CCOCC3)cc2)cc1 [Example 62, N-hydroxy-4-[5-(4-{2-morpholin-4-yl-5-[2-(2-morpholin-4-yl-ethylamino)-ethyl]-thiazol-4-yl}-phenoxy)-pentyloxy]-benzamidine]",,97.0%,92.7%,95.1%,,43.6%,,,
"N=C(NO)c1ccc(OCCCCCOc2ccc(-c3nc(CN4CCCCC4)sc3CCN3CCOCC3)cc2)cc1 [Example 63, N-hydroxy-4-(5-{4-[5-(2-morpholin-4-yl-ethyl)-2-piperidin-1-yl-methyl-thiazol-4-yl]-phenoxy}-pentyloxy)-benzamidine]",,89.4%,86.9%,86.5%,,99.2%,,,
"CNC(=O)c1sc(N)nc1-c1ccc(OCCCCCOc2ccc(C(=N)NO)cc2)cc1 [Example 72, N-hydroxy-4-{5-[4-(2-amino-5-methylcarbamoyl-thiazol-4-yl)-phenoxy]-pentyloxy}-benzamidine]",,,,,,97.6%,95.6%,,

# — patent US7943646B2, “Benzamidine derivative, process for the preparation thereof and pharmaceutical composition comprising same” (Dong Wha Pharmaceutical Co., Ltd., priority 2006, dated 2011)
